Measured values published in publication PMC10012260 (ACS Infectious Diseases, 2023).
“And” between values parts separate entries of the source, which are not always exact repeats. Equal entries are not always repeated. Where two headings read alike, the source gives them in different places.

Columns and labels:
[1] = system: NDV La Sota; test: microbe, parasite or virus in culture; format: cell-based, Newcastle disease virus; details: avian paramyxovirus 1, Vero, read-out: Inhibition of viral binding (IC50, μM)
[2] = system: NDV La Sota; test: microbe, parasite or virus in culture; format: cell-based, Newcastle disease virus; details: for IC50: avian paramyxovirus 1, Vero, 48 h, read-out: plaque reduction assay (IC50, μM)
[3] = in vitro; details: African green monkey
[4] = target: NDV-HN of three NDV strains (two NDV La Sota and the velogenic strain APMV-1/chicken/Egypt/13VIR-5009-2/2013) (Newcastle disease virus, UniProt P35743); test: biochemical
[5] = system: NDV La Sota; test: microbe, parasite or virus in culture; format: cell-based, Newcastle disease virus; details: avian paramyxovirus 1, Vero, 48 h, read-out: Inhibition of viral release (IC50, μM)
[6] = system: NDV La Sota; test: microbe, parasite or virus in culture; format: cell-based, Newcastle disease virus; details: avian paramyxovirus 1, Vero, 24 h, read-out: viral yield reduction assay 24 h (IC50, μM)
[7] = system: hPIV3-HN; details: read-out: IC50 hPIV3-HN; cited from earlier work
[8] = target: La Sota Clone 30 NDV-HN (Newcastle disease virus, UniProt P35743); format: biochemical
La Sota Clone 30 NDV-HN, sequence (P35743 whole entry, looked up): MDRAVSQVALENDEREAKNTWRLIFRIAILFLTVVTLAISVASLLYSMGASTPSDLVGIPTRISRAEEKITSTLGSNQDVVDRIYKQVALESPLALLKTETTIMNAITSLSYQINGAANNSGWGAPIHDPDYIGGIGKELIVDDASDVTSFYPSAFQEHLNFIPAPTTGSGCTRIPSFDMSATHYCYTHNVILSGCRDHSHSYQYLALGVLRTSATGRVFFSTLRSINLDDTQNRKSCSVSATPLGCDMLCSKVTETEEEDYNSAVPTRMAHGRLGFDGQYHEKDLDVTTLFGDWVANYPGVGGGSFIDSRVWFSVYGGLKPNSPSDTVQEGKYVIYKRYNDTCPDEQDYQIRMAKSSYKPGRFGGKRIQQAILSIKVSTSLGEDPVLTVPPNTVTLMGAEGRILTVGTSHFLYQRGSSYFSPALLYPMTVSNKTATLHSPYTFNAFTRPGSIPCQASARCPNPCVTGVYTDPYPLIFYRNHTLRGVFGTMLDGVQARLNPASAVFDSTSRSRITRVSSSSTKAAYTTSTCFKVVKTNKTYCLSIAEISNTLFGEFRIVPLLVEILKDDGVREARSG

NDV-HN of three NDV strains (two NDV La Sota and the velogenic strain APMV-1/chicken/Egypt/13VIR-5009-2/2013), sequence (P35743 whole entry, looked up): as above

Row | Structure (SMILES) | IC50 [1] [µM] | selectivity index (CC50/IC50) [2] | IC50 [2] [µM] | CC50 [3] [µM] | IC50 [4] [µM] | IC50 [5] [µM] | IC50 [6] [µM] | IC50 [7] | increase in potency versus methylsulfonamido derivative 14 [8] [fold] | increase in inhibitory activity versus p-toluenesulfonamido 12 [8] [fold] | times more active than FANA 5 [8] [times]
1 | CC(=O)N[C@H]1[C@H]([C@H](O)[C@H](O)CO)OC(C(=O)O)=C[C@@H]1O [Compound 1, N-acetyl-2,3-dehydro-2-deoxyneuraminic acid, reference compound] | > 100 | >96 | 26 ± 13 | > 2500 | 6.2 to 14 | 15 ± 8 | 1.6 ± 0.6 | – | – | – | –
2 | CC(=O)N[C@H]1[C@H]([C@H](O)[C@H](O)CO)OC(C(=O)O)=C[C@@H]1N=C(N)N [Compound 2, Zanamivir, reference compound] | > 100 | >83 | 30 ± 7 | > 2500 | 23 to 70 | 29 ± 10 | – | – | – | – | –
3 | CC(C)C(=O)N[C@H]1[C@H]([C@H](O)[C@H](O)CO)OC(C(=O)O)=C[C@@H]1N=[N+]=[N-] [Compound 4] | – | – | – | – | – | – | – | 20 µM and 21.5 µM | – | – | –
4 | O=C(O)C1=C[C@H](O)[C@@H](NC(=O)C(F)(F)F)[C@H]([C@H](O)[C@H](O)CO)O1 [Compound 5, N-trifluoroacetyl-2,3-dehydro-2-deoxyneuraminic acid, reference compound] | > 100 | >714 | 3.5 ± 0.9 | > 2500 | 6.2 to 14 | 7.7 ± 2.9 | 0.37 ± 0.08 | – | – | – | –
5 | [N-]=[N+]=N[C@H]1C=C(C(=O)O)O[C@@H]([C@H](O)[C@H](O)CO)[C@@H]1NC(=O)C(F)(F)F [Compound 9] | 23 | – | 0.17 ± 0.06 | > 2500 | ~0.03 | 0.47 | 0.04 ± 0.01 | – | – | – | –
6 | [N-]=[N+]=N[C@H]1C=C(C(=O)O)O[C@@H]([C@H](O)[C@H](O)CO)[C@@H]1NC(=O)C(F)(F)C(F)(F)C(F)(F)F [Compound 10] | 4 | >41,667 | 0.06 ± 0.02 | > 2500 | ~0.03 | 0.09 | 0.04 ± 0.01 | – | – | – | –
7 | O=C(O)C1=C[C@H](NS(=O)(=O)c2ccccc2)[C@@H](NC(=O)C(F)(F)F)[C@H]([C@H](O)[C@H](O)CO)O1 [Compound 19, 2,6-Anhydro-4-(phenylsulfonamido)-3,4,5-trideoxy-5-(2,2,2-trifluoroacetamido)-D-glycero-D-galacto-non-2-enoic Acid] | – | – | – | – | – | – | – | – | 10 | – | –
8 | Cc1ccc(C(=O)N[C@H]2C=C(C(=O)O)O[C@@H]([C@H](O)[C@H](O)CO)[C@@H]2NC(=O)C(F)(F)F)cc1 [Compound 23, 2,6-Anhydro-4-(4-methylbenzamido)-3,4,5-trideoxy-5-(2,2,2-trifluoroacetamido)-D-glycero-D-galacto-non-2-enoic Acid] | 24 | – | 0.79 ± 0.57 | > 2500 | ≤ 0.2 | 0.13 | 0.05 ± 0.02 | – | – | 3 | 40
9 | O=C(O)C1=C[C@H](NC(=O)C(F)(F)F)[C@@H](NC(=O)C(F)(F)F)[C@H]([C@H](O)[C@H](O)CO)O1 [Compound 24, 2,6-Anhydro-3,4,5-trideoxy-4,5-di-(2,2,2-trifluoroacetamido)-D-glycero-D-galacto-non-2-enoic Acid] | 15 | – | 0.08 ± 0.01 | > 2500 | ≤ 0.2 | 0.17 | 0.03 ± 0.01 | – | – | – | –
